Experimental data published in ChEMBL document CHEMBL3046079, “Synthesis, herbicidal activity, and mode of action of IR 5790” (J Agric Food Chem, 2001).

Experiments:
Chenopodium album [1] = assay: Pre-emergence herbicidal activity against Chenopodium album assessed as injury at 150 g/ha applied at 24 hr post-sowing measured after 28 days relative to control; assay type: functional
Sorghum bicolor = assay: Pre-emergence herbicidal activity against Sorghum bicolor assessed as injury at 50 g/ha applied at 24 hr post-sowing measured after 28 days relative to control; assay type: functional
Chenopodium album [2] = assay: Post-emergence herbicidal activity against Chenopodium album assessed as injury at 50 g/ha applied at 15 days post-sowing measured after 15 days relative to control; assay type: functional
Panicum dichotomiflorum = assay: Post-emergence herbicidal activity against Panicum dichotomiflorum assessed as injury at 150 g/ha applied at 15 days post-sowing measured after 15 days relative to control; assay type: functional
Digitaria sanguinalis [3] = assay: Post-emergence herbicidal activity against Digitaria sanguinalis (hairy crabgrass) assessed as injury at 50 g/ha applied at 15 days post-sowing measured after 15 days relative to control; assay type: functional
[4] = Toxicity in po dosed Rattus norvegicus (rat); assay type: organism-based; details: in vivo
Phalaris arundinacea [5] = assay: Post-emergence herbicidal activity against Phalaris arundinacea assessed as injury at 50 g/ha applied at 15 days post-sowing measured after 15 days relative to control; assay type: functional
Setaria viridis = assay: Pre-emergence herbicidal activity against Setaria viridis (green foxtail) assessed as injury at 50 g/ha applied at 24 hr post-sowing measured after 28 days relative to control; assay type: functional
Ipomoea purpurea = assay: Pre-emergence herbicidal activity against Ipomoea purpurea (common morning-glory) assessed as injury at 150 g/ha applied at 24 hr post-sowing measured after 28 days relative to control; assay type: functional
Glycine max [6] = assay: Phytotoxicity against Glycine max (soybean) assessed as injury at 50 g/ha applied as post-emergent treatment at 15 days post-sowing measured after 15 days relative to control; assay type: organism-based; details: in vivo, other, 360 h
Triticum aestivum = assay: Phytotoxicity against Triticum aestivum (wheat) assessed as injury at 5 g/ha applied as post-emergent treatment at 15 days post-sowing measured after 15 days relative to control; assay type: organism-based; details: in vivo, other, 360 h
Geranium dissectum = assay: Post-emergence herbicidal activity against Geranium dissectum assessed as injury at 150 g/ha applied at 15 days post-sowing measured after 15 days relative to control; assay type: functional
Alopecurus myosuroides [7] = assay: Pre-emergence herbicidal activity against Alopecurus myosuroides assessed as injury at 50 g/ha applied at 24 hr post-sowing measured after 28 days relative to control; assay type: functional
Alopecurus myosuroides [8] = assay: Post-emergence herbicidal activity against Alopecurus myosuroides assessed as injury at 15 g/ha applied at 15 days post-sowing measured after 15 days relative to control; assay type: functional
Glycine max [9] = assay: Phytotoxicity against Glycine max (soybean) assessed as injury at 150 g/ha applied as post-emergent treatment at 15 days post-sowing measured after 15 days relative to control; assay type: organism-based; details: in vivo, other, 360 h
Phalaris arundinacea [10] = assay: Pre-emergence herbicidal activity against Phalaris arundinacea assessed as injury at 150 g/ha applied at 24 hr post-sowing measured after 28 days relative to control; assay type: functional
Beta vulgaris = assay: Phytotoxicity against Beta vulgaris assessed as injury at 150 g/ha applied as pre-emergent treatment at 24 hr post-sowing measured after 28 days relative to control; assay type: organism-based; details: in vivo, other, 672 h
Digitaria sanguinalis [11] = assay: Post-emergence herbicidal activity against Digitaria sanguinalis (hairy crabgrass) assessed as injury at 150 g/ha applied at 15 days post-sowing measured after 15 days relative to control; assay type: functional
Alopecurus myosuroides [12] = assay: Post-emergence herbicidal activity against Alopecurus myosuroides assessed as injury at 150 g/ha applied at 15 days post-sowing measured after 15 days relative to control; assay type: functional
Echinochloa crus-galli = assay: Pre-emergence herbicidal activity against Echinochloa crus-galli (barnyard grass) assessed as injury at 50 g/ha applied at 24 hr post-sowing measured after 28 days relative to control; assay type: functional

SMILES: C#CCOc1cc(-n2nc(C(C)(C)C)sc2=O)c(Cl)cc1Cl
- Activity (Chenopodium album [1]): 90%
- Activity (Sorghum bicolor): 0%
- Activity (Chenopodium album [2]): 90%
- Activity (Panicum dichotomiflorum): 90%
- Activity (Digitaria sanguinalis [3]): 50%
- LD50 [4]: > 4000 mg/kg
- Activity (Phalaris arundinacea [5]): 30%
- Activity (Setaria viridis): 30%
- Activity (Ipomoea purpurea): 0%
- Activity (Glycine max [6]): 10%
- Activity (Triticum aestivum): 0%
- Activity (Geranium dissectum): 50%
- Activity (Alopecurus myosuroides [7]): 10%
- Activity (Alopecurus myosuroides [8]): 0%
- Activity (Glycine max [9]): 30%
- Activity (Phalaris arundinacea [10]): 0%
- Activity (Beta vulgaris): 10%
- Activity (Digitaria sanguinalis [11]): 70%
- Activity (Alopecurus myosuroides [12]): 70%
- Activity (Echinochloa crus-galli): 30%
